From US7001905B2, “Substituted diarylamines as MEK inhibitors” (Warner-Lambert Company, priority 2000, dated 2006)

Molecular target: T1, MEK (Homo sapiens, UniProt Q02750)
T1 construct: no tag is given for the 2D mutant
Test: in vitro MEK assay
Format: biochemical
Procedure: For evaluation of direct MEK activity, 10 μg GST-MEK, is incubated in the presence of absence of test compound with 5 μg of a glutathione S-transferase fusion protein containing p44MAP kinase with a lysine to alanine mutation at position 71 (GST-MAPK-KA). This mutation eliminates kinase activity of MAPK, so only kinase activity attributed to the added MEK remains. Incubations are 15 minutes at 30° C. in a final volume of 50 μL containing 50 mM Tris (pH 7.5), […], 2, μM EGTA, and 10 μM [γ-^32P]ATP. The reaction is stopped by addition of Laemmli SDS sample buffer. Phosphorylated GST-MAPK-KA is resolved by electrophoresis on a 10% polyacrylamide gel. Radioactivity incorporated into GST-MAPK-KA is determined by autoradiography, and subsequent scintillation counting of excised bands.
Alternatively, an artificially activated MEK containing serine to glutamate mutations at positions 218 and 222 (GST-MEK-2E) is used. When these two sites are phosphorylated, MEK activity is increased. Phosphorylation of these sites can be mimicked by mutation of the serine residues to glutamate. For this assay, 5 μg GST-MEK-2E is incubated with 5 μg GST-MAPK-KA for 15 minutes at 30° C. in the same reaction buffer as described above. Reactions are terminated and analyzed as above.

T1 sequence (Q02750 whole entry S218D/S222D, form open): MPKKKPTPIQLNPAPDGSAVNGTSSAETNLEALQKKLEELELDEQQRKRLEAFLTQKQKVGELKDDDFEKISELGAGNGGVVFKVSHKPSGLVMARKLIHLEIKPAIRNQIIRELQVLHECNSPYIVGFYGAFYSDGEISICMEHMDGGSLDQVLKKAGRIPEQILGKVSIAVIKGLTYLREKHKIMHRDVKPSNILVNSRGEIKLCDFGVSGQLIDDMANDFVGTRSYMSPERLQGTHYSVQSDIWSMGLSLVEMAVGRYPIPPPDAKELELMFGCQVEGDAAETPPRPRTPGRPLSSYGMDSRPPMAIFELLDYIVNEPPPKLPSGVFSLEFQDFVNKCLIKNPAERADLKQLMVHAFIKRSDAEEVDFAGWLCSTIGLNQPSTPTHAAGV

| IC50 [nM] | in vitro MEK assay: % inhibition @ 1 μM [%] | Structure (SMILES) |
| --- | --- | --- |
| 1700 | 71 | Cc1cc(I)ccc1Nc1c(C(=O)O)cc(C(=O)NCc2ccncc2)c(F)c1F [Example 80, 4,5-Difluoro-6-(4-iodo-2-methyl-phenylamino)-N-pyridin4-ylmethyl-isophthalamic acid] |
| – | 33 | Cc1cc(I)ccc1Nc1c(C(=O)O)cc(C(=O)N2CCC(N3CCCC3)CC2)c(F)c1F [Example 78, 3,4-Difluoro-2-(4-iodo-2-methyl-phenylamino)-5-[1-(4-pyrrolidin-1-yl-piperidin-1-yl)-methanoyl]-benzoic acid] |
| – | 26 | Cc1cc(I)ccc1N1COC(=O)c2cc(C(=O)Nc3nc4c(C)cccc4s3)c(F)c(F)c21 [Example 23, 7,8-Difluoro-1-(4-iodo-2-methyl-phenyl)-4-oxo-1,4-dihydro-2H-3,1-benzoxazine-6-carboxylic acid (4-methyl-benzothiazol-2-yl)-amide] |
| 1100 | 77 | Cc1cc(I)ccc1Nc1c(C(=O)O)cc(C(=O)Nc2ccc3cn[nH]c3c2)c(F)c1F [Example 86, 4,5-Difluoro-N-(1H-indazol-6-yl)-6-(4-iodo-2-methyl-phenylamino)-isophthalamic acid] |
| – | 58 | Cc1cc(I)ccc1Nc1c(C(=O)O)cc(C(=O)NCCCN2CCOCC2)c(F)c1F [Example 91, 4,5-Difluoro-6-(4-iodo-2-methyl-phenylamino)-N-(3-morpholin4-yl-propyl)-isophthalamic acid] |
| – | 69 | Cc1cc(I)ccc1N1COC(=O)c2cc(C(=O)N3CCC(CCO)CC3)c(F)c(F)c21 [Example 44, 7,8-Difluoro-6-[4-(2-hydroxy-ethyl)-piperidine-1-carbonyl]-1-(4-iodo-2-methyl-phenyl)-1,2-dihydro-3,1-benzoxazin-4-one] |
| 2200 | 78 | Cc1cc(I)ccc1Nc1c(C(=O)O)cc(C(=O)N2CCCCC2CCO)c(F)c1F (stereo not shown) [Example 69, 3,4-Difluoro-5-{1-[2-(2-hydroxy-ethyl)-piperidin-1-yl]-methanoyl}-2-(4-iodo-2-methyl-phenylamino)-benzoic acid] |
| – | 79 | Cc1cc(I)ccc1N1COC(=O)c2cc(C(=O)N3CCCCC3CO)c(F)c(F)c21 (stereo not shown) [Example 33, 7,8-Difluoro-6-(2-hydroxymethyl-piperidine-1-carbonyl)-1-(4-iodo-2-methyl-phenyl)-1,2-dihydro-3,1-benzoxazin-4-one] |
| – | 59 | Cc1cc(I)ccc1Nc1c(C(=O)O)cc(C(=O)NCCCn2ccnc2)c(F)c1F [Example 90, 4,5-Difluoro-N-(3-imidazol-1-yl-propyl)-6-(4-iodo-2-methyl-phenylamino)-isophthalamic acid] |
| – | 35 | Cc1cc(I)ccc1N1COC(=O)c2cc(C(=O)NCC3CCCO3)c(F)c(F)c21 (stereo not shown) [Example 57, 7,8-Difluoro-1-(4-iodo-2-methyl-phenyl)4-oxo-1,4-dihydro-2H-3,1-benzoxazine-6-carboxylic acid (tetrahydro-furan-2-ylmethyl)-amide] |
| 465 | 92 | Cc1cc(I)ccc1Nc1c(C(=O)O)cc(C(=O)N2CCCC(O)C2)c(F)c1F (stereo not shown) [Example 75] |
| – | 76 | Cc1cc(I)ccc1N1COC(=O)c2cc(C(=O)N3CCSC3)c(F)c(F)c21 [Example 58, 7,8-Difluoro-1-(4-iodo-2-methyl-phenyl)-6-(thiazolidine-3-carbonyl)-1,2-dihydro-3,1-benzoxzin-4-one] |
| – | 28 | Cc1cc(I)ccc1N1COC(=O)c2cc(C(=O)NCCC3CCCN3C)c(F)c(F)c21 (stereo not shown) [Example 19, 7,8-Difluoro-1-(4-iodo-2-methyl-phenyl)-4-oxo-1,4-dihydro-2H-3,1-benzoxazine-6-carboxylic acid [2-(1-methyl-pyrrolidin-2-yl)ethyl]-amide] |
| 960 | 79 | CCn1nccc1NC(=O)c1cc(C(=O)O)c(Nc2ccc(I)cc2C)c(F)c1F [Example 84, N-(2-Ethyl-2H-pyrazol-3-yl)-4,5-difluoro-6-(4-iodo-2-methyl-phenylamino)-isophthalamic acid] |
| 150 | 90 | Cc1cc(I)ccc1Nc1c(C(=O)O)cc(C(=O)N2CCC(CCO)CC2)c(F)c1F [Example 83, 3,4-Difluoro-5-{1-[4-(2-hydroxy-ethyl)-piperidin-1-yl]-methanoyl}-2-(4-iodo-2-methyl-phenylamino)-benzoic acid] |
| – | 93 | COC[C@@H]1CCCN1C(=O)c1cc2c(c(F)c1F)N(c1ccc(I)cc1C)COC2=O [Example 9, 7,8-Difluoro-1-(4-iodo-2-methyl-phenyl)-6-((S)-2-methoxymethyl-pyrrolidine-1-carbonyl)-1,2-dihydro-3,1-benzoxazin-4-one] |
| – | 80 | Cc1cc(I)ccc1Nc1c(C(=O)O)cc(C(=O)Nc2ccc(N(C)C)cc2)c(F)c1F [Example 92, N-(4-Dimethylamino-phenyl)-4,5-difluoro-6-(iodo-methyl-phenylamino)-isophthalamic acid] |
| – | 1 | Cc1cc(I)ccc1N1COC(=O)c2cc(C(=O)N3CCNCC3)c(F)c(F)c21 [Example 56, 7,8-Difluoro-1-(4-iodo-2-methyl-phenyl)-6-(piperazine-1-carbonyl)-1,2-dihydro-3,1-benzoxazin-4-one] |
| – | 35 | Cc1cc(I)ccc1N1COC(=O)c2cc(C(=O)NCCCn3ccnc3)c(F)c(F)c21 [Example 52, 7,8-Difluoro-1-(4-iodo-2-methyl-phenyl)-4-oxo-1,4-dihydro-2H-3,1-benzoxazine-6-carboxylic acid (3-imidazol-1-yl-propyl)amide] |
| 87 | 86 | Cc1cc(I)ccc1Nc1c(C(=O)O)cc(C(=O)N2CCSC2)c(F)c1F [Example 98, 3,4-Difluoro-2-(4-iodo-2-methyl-phenylamino)-5-(1-thiazolidin-3-yl-methanoyl)-benzoic acid] |
| – | 41 | Cc1cc(I)ccc1N1COC(=O)c2cc(C(=O)N(C)CCO)c(F)c(F)c21 [Example 20, 7,8-Difluoro-1-(4-iodo-2-methyl-phenyl)-4-oxo-1,4-dihydro-2H-3,1-benzoxazine-6-carboxylic acid (2-hydroxy-ethyl)-methyl-amide] |
| – | 0 | COc1ccc2[nH]cc(CCNC(=O)c3cc4c(c(F)c3F)N(c3ccc(I)cc3C)COC4=O)c2c1 [Example 47, 7,8-Difluoro-1-(4-iodo-2-methyl-2-phenyl)-4-oxo-1,4-dihydro-2H-3,1-benzoxazine-6-carboxylic acid [2-(5-methoxy-1H-indol-3-yl)ethyl]-amide] |
| – | 52 | Cc1cc(I)ccc1N1COC(=O)c2cc(C(=O)N3CCC(O)CC3)c(F)c(F)c21 [Example 43, 7,8-Difluoro-6-(4-hydroxy-piperidine-1-carbonyl)1-(4-iodo-2-methyl-phenyl)-1,2-dihydro-3,1-benzoxazin-4-one] |
| 300 | 88 | Cc1cc(I)ccc1Nc1c(C(=O)O)cc(C(=O)N2CCCC(CO)C2)c(F)c1F (stereo not shown) [Example 76, 3,4-Difluoro-5-[1-(3-hydroxymethyl-piperidin-1-yl)-methanoyl]-2-(4-iodo-2-methyl-phenylamino)-benzoic acid] |
| – | 81 | Cc1cc(I)ccc1Nc1c(C(=O)O)cc(C(=O)NCC2CCCO2)c(F)c1F (stereo not shown) [Example 97, 4,5-Difluoro-6-(4-iodo-2-methyl-phenylamino)-N-(tetrahydro-furan-2-ylmethyl)-isophthalamic acid] |
| 970 | 90 | Cc1cc(I)ccc1Nc1c(C(=O)O)cc(C(=O)Nc2ccc(Cl)nc2)c(F)c1F [Example 85, N-(6-Chloro-pyridin-3-yl)-4,5-difluoro-6-(4-iodo-2-methyl-phenylamino)-isophthalamic acid] |
| – | 41 | Cc1cc(I)ccc1N1COC(=O)c2cc(C(=O)N(C)CCc3c[nH]c4ccccc34)c(F)c(F)c21 [Example 55, 7,8-Difluoro-1-(4-iodo-2-methyl-phenyl)-4-oxo-1,4-dihydro-2H-3,1-benzoxazine-6-carboxylic acid [2-(1H-indol-3-yl)ethyl]-methyl-amide] |
| – | 56 | CCN1CCN(C(=O)c2cc3c(c(F)c2F)N(c2ccc(I)cc2C)COC3=O)CC1 [Example 54, 6-(4-Ethyl-piperazine-1-carbonyl)-7,8-difluoro-1-(4-iodo-2-methyl-phenyl)-1,2-dihydro-3,1-benzoxazin-4-one] |
